Experimental data: paper PMC12778052 (Science Advances, 2026)

What was measured:
[1] = test system: HT1376 tumors; assay: Pilot in vivo EV effect on tumor uptake of [^68Ga]AJ647, HT1376 tumors; parameters: species or system NSG mice; settings: EV 20 mg/kg i.v. single dose, 24 hours before tracer, ex vivo 60 min, n = 5
Protocol: (§1) Male NSG mice were implanted subcutaneously with HT1376 and SCaBER cells (4 million each) on the right and left rostral ends, respectively. On day 25 after cell inoculation (average tumor volume, 200 ± 35 mm^3), mice were randomized and treated with a single dose of either saline or EV ADC (20 mg/kg) injected intravenously (volume not exceeding 300 μl) or with 200 μl of saline (n = 7 per group). Twenty-four hours following the EV dose, [^68Ga]AJ647 PET scans (n = 2 per group) were acquired, and ex vivo biodistribution (n = 5 per group) was performed using the protocols mentioned above.

[2] = test system: SCaBER tumors; assay: Pilot in vivo EV effect on tumor uptake of [^68Ga]AJ647, SCaBER tumors; parameters: species or system NSG mice; settings: EV 20 mg/kg i.v. single dose, 24 hours before tracer, ex vivo 60 min, n = 5
Protocol: as §1

[3] = 1.25 mg/kg dose level; cited from earlier work
Excerpt: Focusing on EV, an FDA-approved ADC targeting Nectin-4 ([11]), we aimed to test whether PET-measured target engagement (TE) could better define the relationships among dose, exposure, and therapeutic response. […] Adjustments in the dosage were more ...

[4] = test system: HT1376 cells; assay: [^68Ga]AJ647 binding after EV preincubation, HT1376 cells; type: cell-based; settings: EV 60 nM preincubated 30 min, P < 0.0001
Protocol: An FITC analog of EV was made using the manufacturer’s recommended protocol (Thermo Fisher Scientific, no. 46409). Briefly, 1 mg of EV was incubated with FITC-NHS ester at a 5:1 molar ratio overnight at 4°C at 0.1 M borate buffer (pH 8.0). Excess unbound FITC-NHS ester was washed off by performing buffer exchange with 1× PBS using three rounds of ultracentrifugation at 4000g for 10 min (3-kDa molecular weight cutoff filter, Amicon, no. UFC900308). The effect of nonradioactive AJ647 on EV binding to Nectin-4 was assessed by incubating HT1376 cells at varying concentrations (5.4 μM to 0.01 nM using a serial dilution) of AJ647 for 30 min at 4°C. Unbound AJ647 was washed off using 3 ml of cold PBS. Cells were incubated with EV-FITC for 30 min at 4°C. Excess EV-FITC was washed off using 3 ml of cold PBS. The mean fluorescence intensity was measured using a flow cytometer, and data are reported as the percentage of 0 nM AJ647. For the effect of EV on [^68Ga]AJ647 binding, EV was used at concentrations of 90 to 0.04 nM using serial dilutions for 30 min at 4°C. Unbound EV was washed off using cold PBS. Then, cells were incubated with 1 μCi of [^68Ga]AJ647 for an additional 30 min. Excess [^68Ga]AJ647 was washed off three times with cold PBS. Samples were read in an automated gamma counter, and data are reported as the percentage of 1-μCi standard counts.

[5] = test system: HT1376 cells; assay: In vitro binding of [^68Ga]AJ647 to HT1376 cells; type: cell-based; settings: 1 × 10^6 cells, ~1 μCi, 30 min, 4°C, means ± SD, n = 4
Protocol: (§2) In vitro binding of [^68Ga]AJ647 to T24, SCaBER, RT112, UC9, UC14, and HT1376 cells was determined by incubating 1 × 10^6 cells with ~1 μCi of [^68Ga]AJ647 for 30 min at 4°C. After incubation, cells were washed three times with ice-cold PBS containing 0.1% Tween 20 and counted on an automated gamma counter. All cell radioactivity uptake studies were performed in quadruplicate for each cell line and repeated three times.

[6] = biological target: T1, human Nectin-4 (Homo sapiens, UniProt Q96NY8); assay: SPR affinity for recombinant human Nectin-4; type: binding; settings: human Nectin-4
T1 construct: purchased R&D Systems 2659-N4-050
T1 sequence (Q96NY8 32-349 limits assumed): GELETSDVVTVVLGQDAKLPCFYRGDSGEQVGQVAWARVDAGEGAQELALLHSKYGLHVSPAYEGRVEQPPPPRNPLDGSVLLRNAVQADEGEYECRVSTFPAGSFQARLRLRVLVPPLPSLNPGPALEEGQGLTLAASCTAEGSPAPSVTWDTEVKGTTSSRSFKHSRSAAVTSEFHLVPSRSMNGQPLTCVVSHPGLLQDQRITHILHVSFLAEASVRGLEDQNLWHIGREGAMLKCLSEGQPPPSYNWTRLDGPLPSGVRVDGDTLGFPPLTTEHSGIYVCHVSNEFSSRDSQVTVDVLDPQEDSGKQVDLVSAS
Protocol: The affinity of AJ647 for human and mouse Nectin-4 recombinant proteins was evaluated by SPR. The experiments were conducted using a Biacore T200 instrument with a CM5 chip at 25°C. The ligands used were His-tagged human Nectin-4 (R&D Systems, catalog no. 2659-N4-050, 44 kDa, 0.2 mg/ml stock concentration) and mouse Nectin-4 proteins (R&D Systems, catalog no. 3116-N4-050, 45 kDa, 0.2 mg/ml stock concentration), which were immobilized onto the CM5 chip. AJ647 (3057.5 Da, 10 mM stock concentration) was used as the analyte, which flowed over the ligand-immobilized surface. FC2 and FC4 was used as the experimental flow cell, while FC1 and FC3 served as the reference. An anti-His antibody (1 mg/ml stock concentration) was immobilized on all flow cells using standard amine coupling chemistry. […] Human Nectin-4 was captured onto FC2 at a level of ~600 RU, with a 1:20 dilution and 10 μg/ml diluted concentration in PBS-P. Mouse Nectin-4 was captured onto FC4 at a level of 600 RU, with a 1:20 dilution and 10 μg/ml diluted concentration in PBS-P. The theoretical maximum response (Rmax ) values were calculated on the basis of the captured response values (table S1), assuming a 1:1 interaction mechanism. […] All association and dissociation kinetics were evaluated by 1:1 kinetics model fitting.

[7] = test system: UC14 cells; assay: In vitro binding of [^68Ga]AJ647 to UC14 cells; type: cell-based; settings: 1 × 10^6 cells, ~1 μCi, 30 min, 4°C, means ± SD, n = 4
Protocol: as §2

With enfortumab vedotin [EV] as the compound, how does the “reduction in [^68Ga]AJ647 tumor uptake vs saline controls” value [1] read?
Its value is 84%.

What about the “reduction in [^68Ga]AJ647 tumor uptake vs saline controls” value [2] of the same compound?
Its value is 72%.

What about the “patients needing dosage adjustments” value [3] of the same compound?
The value was “more than 32%”.

And the “effect on [^68Ga]AJ647 binding” value [4]?
Its value is “significantly reduced [^68Ga]AJ647 binding”.

Which “[^68Ga]AJ647 uptake” value [5] does the source give for `CSCC[C@@H]1NC(=O)[C@@H]2CSCCC(=O)N3CN(CN(C3)C(=O)CCSC[C@H](NC(=O)CCOCCOCCOCCOCCOCCOCCOCCOCCOCCOCCOCCOCCNC(=O)CN3CCN(CC(=O)O)CCN(CC(=O)O)CC3)C(=O)N3CCC[C@H]3C(=O)N[C@@H](Cc3cccc4ccccc34)C(=O)N[C@@H](CC(=O)O)C(=O)N2)C(=O)CCSC[C@@H](C(N)=O)NC(=O)[C@H](Cc2c[nH]c3ccccc23)NC(=O)[C@@H]2C[C@@H](O)CN2C(=O)[C@@H]2CCCN2C(=O)[C@H]([C@@H](C)O)NC(=O)[C@H](CO)NC(=O)[C@H](Cc2c[nH]c3ccccc23)NC(=O)[C@@H](CC(=O)O)NC(=O)[C@H](CCCCNC(=N)N)NC1=O` [[^68Ga]AJ647, metal not drawn] here?
Its value is 6.5 ± 0.52 %IA.

And the koff [6]?
The koff was 0.0106 ± 0.00159 s⁻¹.

What about the “[^68Ga]AJ647 uptake” value [7] of the same compound?
Its value is 3.0 ± 0.42 %IA.
